Experimental data published in patent US7192722B2, “Phenethanolamine-derived haptens, immunogens, antibodies and conjugates” (Randox Laboratories, priority 2004, dated 2007).
≈ marks a conversion by molar mass, not a printed value. Where “and” joins values, the source holds several entries; their conditions need not be identical. Identical values can stand only once.

Key:
[1] = test system: IgG fraction of the antiserum raised to immunogen C (hapten C-BSA); test: Competitive ELISA for ractopamine, Example 22 b): antiserum to immunogen C, conjugate C (hapten C-HRP); assay type: binding, sheep; conditions: for % CR: cross-reactivity relative to ractopamine = 100%
Method: (§1) An aqueous solution of each immunogen was formulated with Freund's Complete Adjuvant (FCA) to form an emulsion consisting of 2 mg/ml immunogen in 50% (v/v) FCA. Three sheep were immunised with this emulsion (1° immunisation), 0.25 ml being subcutaneously injected at each of four sites in the flank of each animal. Subsequent immunizations (boosts) contained 1 mg/ml immunogen. All boosts were emulsified in 50% (v/v) Freund's Incomplete Adjuvant (FIA) and were administered in the same manner as the 1° immunisation, at monthly intervals for 1 year. Blood sampling took place 7 to 14 days after each boost. Each sample was processed to produce antiserum, which was further purified by caprylic acid and ammonium sulfate precipitation to yield an immunoglobulin G (IgG) fraction.
The same definitions apply for A450, B, B0 and IC50.
(§2) Employing each series of standards in the ractopamine competitive ELISAs, calibration curves were generated and these were used to determine the cross-reactivity of each immunoassay with these substances.

[2] = test system: IgG fraction of the antiserum raised to immunogen A (hapten A-BSA); test: Competitive ELISA for ractopamine, Example 22 a): antiserum to immunogen A, conjugate A (hapten A-HRP); assay type: binding, sheep; conditions: for % CR: cross-reactivity relative to ractopamine = 100%
Method: as §1
The appropriate antibody coating dilution was determined using standard ELISA checkerboard techniques. The plate was incubated for 2 hours at 37° C., washed 4 times with Tris buffered saline containing Tween 20 (TBST) and tapped dry. Standard solutions of ractopamine were prepared in TBST at 0, 0.05, 0.1, 0.5, 1, and 5 ng/ml, and 50 μl of each was added to the appropriate wells. […] The appropriate dilution of conjugate was also determined using standard ELISA checkerboard techniques. The plate was incubated at 37° C. for 2 hours. Excess unbound conjugate was removed by washing 6 times over a 10 minute period with TBST. 125 μl of tetramethylbenzidine (TMB) substrate solution was added to each well of the plate that was then incubated for 15 to 20 minutes in the dark at room temperature. The reaction was terminated by addition of 125 μl 0.2M H2SO4 to each well. The absorbance was then measured at 450 nm using a microtiter plate reader.
as §2

[3] = test system: Shelver polyclonal antiserum (ractopamine-hemiglutarate-KLH); conditions: Shelver pAb, cited from earlier work; for % CR: relative to ractopamine = 100%
[4] = test system: Shelver monoclonal antibody (5G10); conditions: Shelver mAb, cited from earlier work; for % CR: relative to ractopamine = 100%
[5] = test system: IgG fraction of the antiserum raised to immunogen D (hapten D-BSA); test: Competitive ELISA for isoxsuprine, Example 24: antiserum to immunogen D, conjugate D (hapten D-HRP); assay type: binding; conditions: for % CR: cross-reactivity relative to isoxsuprine = 100%
[6] = test system: IgG fraction of the antiserum raised to immunogen E (hapten E-BSA); test: Competitive ELISA for ritodrine, Example 25: antiserum to immunogen E, conjugate E (hapten E-HRP); assay type: binding; conditions: for % CR: cross-reactivity relative to ritodrine = 100%
[7] = test system: Haasnoot antibody derived from a fenoterol derivative; conditions: cited from earlier work

Compound: CC(C)NCC(O)c1ccc(O)c(O)c1 (racemic) [DL-Isoproterenol]
- % CR [1]: <0.5%
- % CR [2]: <0.16%
- IC50 CR [3]: >100,000 ng/ml
- % CR [3]: <0.01%

Compound: CC(C)NC[C@H](O)c1ccc(O)c(O)c1 [(−) Isoproterenol]
- % CR [1]: <0.01%
- % CR [2]: <0.16%

Compound: CCCCNCC(O)c1ccc(O)cc1 (stereo not drawn) [Bamethane]
- % CR [1]: <0.01%
- % CR [2]: <0.16%
- IC50 CR [4]: 831 ng/mL (≈ 3.97 µM)
- % CR [4]: 0.3%
- IC50 CR [3]: 2,900 ng/ml
- % CR [3]: 0.1%

Compound: CC(C)NCC(O)c1ccc(N)c(C#N)c1 (stereo not drawn) [Cimaterol]
- % CR [1]: <0.01%
- % CR [2]: <0.16%

Compound: CC(C)(C)NCC(O)c1cc(Cl)c(N)c(Cl)c1 (stereo not drawn) [Clenbuterol]
- % CR [1]: <0.01%
- % CR [2]: <0.16%
- % CR [4]: <0.1%
- IC50 CR [3]: >100,000 ng/ml
- % CR [3]: <0.01%

Compound: CC(CCc1ccc(O)cc1)NCCc1ccc(O)c(O)c1 (stereo not drawn) [Dobutamine]
- % CR [1]: <0.8%
- % CR ([1]; listed as dobutamine): < 0.8%
- % CR [2]: 0.186%
- % CR ([2]; listed as dobutamine): 0.186% and < 0.8%
- % CR [5]: <0.1%
- IC50 CR [4]: 50.3 ng/mL (≈ 0.167 µM)
- % CR [4]: 5.3%
- IC50 CR [3]: 12.7 ng/mL (≈ 0.0421 µM)
- % CR [3]: 33%
- % CR [6]: <5.0%

Compound: NCCc1ccc(O)c(O)c1 [Dopamine]
- % CR [1]: <0.01%
- % CR [2]: <0.16%

Compound: CC(Cc1ccc(O)cc1)NCC(O)c1cc(O)cc(O)c1 (stereo not drawn) [Fenoterol]
- % CR [1]: <0.05%
- % CR [2]: <0.16%
- IC50 CR [4]: 2,682 ng/ml
- % CR [4]: 0.1%
- IC50 CR [3]: 310 ng/mL (≈ 1.02 µM)
- % CR [3]: 1.3%

Compound: CC(COc1ccccc1)NC(C)C(O)c1ccc(O)cc1 (stereo not drawn) [Isoxsuprine]
- % CR [1]: <0.6%
- % CR [2]: <0.16%
- % CR [5]: 100%
- % B/B0 ([5]; isoxsuprine 0.5 ng/ml): 31.6%
- % B/B0 ([5]; isoxsuprine 1 ng/ml): 17.0%
- % B/B0 ([5]; isoxsuprine 5 ng/ml): 6.7%
- % B/B0 ([5]; isoxsuprine 10 ng/ml): 4.9%
- % B/B0 ([5]; isoxsuprine 50 ng/ml): 1.5%
- % B/B0 ([5]; isoxsuprine 100 ng/ml): 1.3%
- % B/B0 ([5]; isoxsuprine 200 ng/ml): 0.9%
- IC50 CR [4]: 1,391 ng/ml
- % CR [4]: 0.2%
- IC50 CR [3]: 6,200 ng/ml
- % CR [3]: 0.1%
- % CR [6]: 20.2%

Compound: CC(C)(C)NCC(O)c1cc(Cl)c(N)c(C(F)(F)F)c1 (stereo not drawn) [Mabuterol]
- % CR [1]: <0.01%
- % CR [2]: <0.16%

Compound: CC(C)NCC(O)c1cc(O)cc(O)c1 (stereo not drawn) [Metaproterenol]
- % CR [1]: <0.01%
- % CR [2]: <0.16%
- IC50 CR [3]: >100,000 ng/ml
- % CR [3]: <0.01%

Compound: CC(C)(C)NCC(O)c1ccc(O)c(CO)n1 (stereo not drawn) [Pirbuterol]
- % CR [1]: <0.05%
- % CR [2]: <0.16%

Compound: CC(CCc1ccc(O)cc1)NCC(O)c1ccc(O)cc1 (stereo not drawn) [Ractopamine]
- % CR [1]: 100%
- % B/B0 ([1]; ractopamine 0.025 ng/ml): 84%
- % B/B0 ([1]; ractopamine 0.1 ng/ml): 65%
- % B/B0 ([1]; ractopamine 0.25 ng/ml): 46%
- % B/B0 ([1]; ractopamine 0.5 ng/ml): 34%
- % B/B0 ([1]; ractopamine 1 ng/ml): 24%
- % CR [2]: 100%
- % B/B0 ([2]; ractopamine 0.05 ng/ml): 53.5%
- % B/B0 ([2]; ractopamine 0.1 ng/ml): 49.5%
- % B/B0 ([2]; ractopamine 0.5 ng/ml): 23.7%
- % B/B0 ([2]; ractopamine 1 ng/ml): 16.9%
- % B/B0 ([2]; ractopamine 5 ng/ml): 6.33%
- cross-reactivity [7]: 20%
- % CR [5]: <0.1%
- IC50 CR [4]: 2.69 ng/mL (≈ 0.00893 µM)
- % CR [4]: 100%
- IC50 CR [3]: 4.2 ng/mL (≈ 0.0139 µM)
- % CR [3]: 100%
- % CR [6]: <0.5%

Compound: CC(NCCc1ccc(O)cc1)C(O)c1ccc(O)cc1 (stereo not drawn) [Ritodrine]
- % CR [1]: <0.5%
- % CR [2]: <0.16%
- % CR [5]: <0.1%
- IC50 CR [4]: 73.8 ng/mL (≈ 0.257 µM)
- % CR [4]: 3.6%
- IC50 CR [3]: 577 ng/mL (≈ 2.01 µM)
- % CR [3]: 0.8%
- % CR [6]: 100%
- % B/B0 ([6]; ritodrine 1 ng/ml): 92.0%
- % B/B0 ([6]; ritodrine 5 ng/ml): 82.3%
- % B/B0 ([6]; ritodrine 10 ng/ml): 80.2%
- % B/B0 ([6]; ritodrine 50 ng/ml): 64.7%
- % B/B0 ([6]; ritodrine 100 ng/ml): 55.9%
- % B/B0 ([6]; ritodrine 500 ng/ml): 30.0%
- % B/B0 ([6]; ritodrine 1000 ng/ml): 22.6%

Compound: CC(C)(C)NCC(O)c1ccc(O)c(CO)c1 (stereo not drawn) [Salbutamol]
- % CR [1]: <0.01%
- % CR [2]: <0.16%
- % CR [4]: <0.1%
- IC50 CR [3]: 79,000 ng/ml
- % CR [3]: <0.01%

Compound: OCc1cc(C(O)CNCCCCCCOCCCCc2ccccc2)ccc1O (stereo not drawn) [Salmeterol Xinafoate]
- % CR [1]: <0.5%
- % CR [2]: <0.16%
- IC50 CR [4]: 1519 ng/mL (≈ 3.66 µM)
- % CR [4]: 0.2%
- IC50 CR [3]: 1,800 ng/ml
- % CR [3]: 0.2%

Compound: CC(C)(C)NCC(O)c1cc(O)cc(O)c1 (stereo not drawn) [Terbutaline]
- % CR [1]: <0.01%
- % CR [2]: <0.16%

Compound: CC(C)(C)NCC(O)c1ccccc1Cl (stereo not drawn) [Tulobuterol]
- % CR [1]: <0.05%
- % CR [2]: <0.16%

Compound: Methyl Clenbuterol
- % CR [1]: <0.05%
- % CR [2]: <0.16%
